Data taken from patent US12077555B2, “STAT degraders and uses thereof” (Kymera Therapeutics, Inc., priority 2019, dated 2024).

molecular target: STAT3 (Homo sapiens, UniProt P40763); experiment: STAT3 HiBiT degradation assay in transfected A549 cells; assay type: cell-based; design: expressed in transfected cells; host or cells: A549; conditions: A549, 24 h; read-out: STAT3 HiBiT A549 degradation 24 h: Average external-Abs DC50
Summary of the method: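 Transfected A549 cells (~2000/well) plated 24 h, then treated 24 h at 37 °C, 5% CO2 with a 3-fold, 10-point compound dilution. HiBiT lytic luminescence read after 10 min at room temperature; remaining STAT3 normalized to negative and positive controls, four-parameter fit. DC50 binned A <0.01, B 0.01–0.1, C 0.1–1.0, D >1.0 µM.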

Sequence of STAT3 (P40763 whole entry): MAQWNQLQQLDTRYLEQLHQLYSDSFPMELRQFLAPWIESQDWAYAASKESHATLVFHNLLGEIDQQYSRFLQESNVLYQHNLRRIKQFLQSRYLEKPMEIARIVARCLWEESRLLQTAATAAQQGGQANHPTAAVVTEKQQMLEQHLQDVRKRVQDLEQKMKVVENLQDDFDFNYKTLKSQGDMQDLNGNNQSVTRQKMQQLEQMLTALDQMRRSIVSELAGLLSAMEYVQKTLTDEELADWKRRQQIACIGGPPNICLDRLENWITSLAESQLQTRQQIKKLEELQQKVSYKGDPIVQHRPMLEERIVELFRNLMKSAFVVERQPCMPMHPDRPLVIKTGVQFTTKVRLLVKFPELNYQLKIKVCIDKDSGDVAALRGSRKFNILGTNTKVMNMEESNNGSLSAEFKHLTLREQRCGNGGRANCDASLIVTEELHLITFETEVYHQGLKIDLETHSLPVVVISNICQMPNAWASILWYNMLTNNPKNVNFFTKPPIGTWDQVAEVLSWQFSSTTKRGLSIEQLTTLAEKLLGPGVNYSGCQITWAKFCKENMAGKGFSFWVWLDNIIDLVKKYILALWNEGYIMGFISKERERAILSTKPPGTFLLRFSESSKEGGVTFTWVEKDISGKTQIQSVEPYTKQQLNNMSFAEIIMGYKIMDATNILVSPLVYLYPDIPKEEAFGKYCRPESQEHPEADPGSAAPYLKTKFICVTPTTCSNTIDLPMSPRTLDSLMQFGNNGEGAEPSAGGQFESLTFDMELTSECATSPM

SMILES	DC50 [nM]
Cc1ncsc1-c1ccc(CNC(=O)[C@@H]2C[C@@H](O)CN2C(=O)[C@@H](NC(=O)CCCCCCCOC[C@H](CCC(N)=O)NC(=O)[C@@H]2Cc3cccc4c3N2C(=O)[C@@H](NC(=O)c2cc3cc(C(=O)P(=O)(O)O)ccc3[nH]2)CC4)C(C)(C)C)cc1 [Compound I-155]	> 1000
Cn1c(=O)n(C2CCC(=O)NC2=O)c2ccc(CN3CCN(CC(=O)N4CC[C@H]5CC[C@@H](C(=O)N[C@@H](CCC(N)=O)C(=O)NC(c6ccccc6)c6ccccc6)N5C(=O)[C@@H](NC(=O)c5cc6cc(C(=O)P(=O)(O)O)ccc6[nH]5)C4)CC3)cc21 (stereo partly drawn) [Compound I-157, 2-[[(5S,8S,10aR)-8-[[(1S)-3-carbamoyl-1-(diphenylmethylcarbamoyl)propyl]carbamoyl]-3-[2-(4-[[1-(2,6-dioxopiperidin-3-yl)-3-methyl-2-oxo-1,3-benzodiazol-5-yl]methyl]piperazin-l-yl)acetyl]-6-oxo-octahydropyrrolo[1,2-a][1,5]diazocin-5-yl]carbamoyl]-1H-indole-5-carbonylphosphonic acid]	100 to 1000
Cn1c(=O)n(C2CCC(=O)NC2=O)c2ccc(CC3CCN(CC(=O)N4CC[C@H]5CC[C@@H](C(=O)N[C@@H](CCC(N)=O)C(=O)NC(c6ccccc6)c6ccccc6)N5C(=O)[C@@H](NC(=O)c5cc6cc(C(=O)P(=O)(O)O)ccc6[nH]5)C4)CC3)cc21 (stereo partly drawn) [Compound I-158, 2-[[(5S,8S,10aR)-8-[[(1S)-3-carbamoyl-1-(diphenylmethylcarbamoyl)propyl]carbamoyl]-3-[2-(4-[[1-(2,6-dioxopiperidin-3-yl)-3-methyl-2-oxo-1,3-benzodiazol-5-yl]methyl]piperidin-1-yl)acetyl]-6-oxo-octahydropyrrolo[1,2-a][1,5]diazocin-5-yl]carbamoyl]-1H-indole-5-carbonylphosphonic acid]	> 1000
Cc1ncsc1-c1ccc(CNC(=O)[C@@H]2C[C@@H](O)CN2C(=O)[C@@H](NC(=O)CCCCCC#CCOC[C@H](CCC(N)=O)NC(=O)[C@@H]2Cc3cccc4c3N2C(=O)[C@@H](NC(=O)c2cc3cc(C(=O)P(=O)(O)O)ccc3[nH]2)CC4)C(C)(C)C)cc1 [Compound I-159]	100 to 1000
Cc1ncsc1-c1ccc(CNC(=O)[C@@H]2C[C@@H](O)CN2C(=O)[C@@H](NC(=O)CCC2CCN(c3ccc(CO[C@H](C)[C@H](CCC(N)=O)NC(=O)[C@@H]4Cc5cccc6c5N4C(=O)[C@@H](NC(=O)c4cc5cc(C(=O)P(=O)(O)O)ccc5[nH]4)CC6)cc3)CC2)C(C)(C)C)cc1 [Compound I-160, diammonium 2-[[(2S,11S)-2-[[(3S,4R)-1-carbamoyl-4-([4-[4-(2-[[(2S)-1-[(2S,4R)-4-hydroxy-2-([[4-(4-methyl-1,3-thiazol-5-yl)phenyl]methyl]carbamoyl)pyrrolidin-1-yl]-3,3-dimethyl-1-oxobutan-2-yl]carbamoyl]ethyl)piperidin-1-yl]phenyl]methoxy)pentan-3-yl]carbamoyl]-12-oxo-1-azatricyclo[6.4.1.0^4,13]]trideca-4(13),5,7-trien-11-yl]carbamoyl]-1H-indole-5-carbonylpho sphonate]	> 1000
Cc1ncsc1-c1ccc(CNC(=O)[C@@H]2C[C@@H](O)CN2C(=O)[C@@H](NC(=O)C2CCN(c3ccc(CO[C@H](C)[C@H](CCC(N)=O)NC(=O)[C@@H]4Cc5cccc6c5N4C(=O)[C@@H](NC(=O)c4cc5cc(C(=O)P(=O)(O)O)ccc5[nH]4)CC6)cc3)CC2)C(C)(C)C)cc1 [Compound I-161]	> 1000
Cc1ncsc1-c1ccc(CNC(=O)[C@@H]2C[C@@H](O)CN2C(=O)[C@@H](NC(=O)CC2CCN(c3ccc(CO[C@H](C)[C@H](CCC(N)=O)NC(=O)[C@@H]4Cc5cccc6c5N4C(=O)[C@@H](NC(=O)c4cc5cc(C(=O)P(=O)(O)O)ccc5[nH]4)CC6)cc3)CC2)C(C)(C)C)cc1 [Compound I-162, diammonium 2-[[(2S,11S)-2-[[(3S,4R)-1-carbamoyl-4-([4-[4-([[(2S)-1-[(2S,4R)-4-hydroxy-2-([[4-(4-methyl-1,3-thiazol-5-yl)phenyl]methyl]carbamoyl)pyrrolidin-1-yl]-3,3-dimethyl-1-oxobutan-2-yl]carbamoyl]methyl)piperidin-1-yl]phenyl]methoxy)pentan-3-yl]carbamoyl]-12-oxo-1-azatricyclo[6.4.1.0^[4,13]]trideca-4(13),5,7-trien-11-yl]carbamoyl]-1H-indole-5-carbonylphosphonate]	> 1000
Cc1ncsc1-c1ccc(CNC(=O)[C@@H]2C[C@@H](O)CN2C(=O)[C@@H](NC(=O)CC2CC(Cc3ccc(CO[C@H](C)[C@H](CCC(N)=O)NC(=O)[C@@H]4Cc5cccc6c5N4C(=O)[C@@H](NC(=O)c4cc5cc(C(=O)P(=O)(O)O)ccc5[nH]4)CC6)cc3)C2)C(C)(C)C)cc1 (stereo partly drawn) [Compound I-163]	> 1000
Cc1ncsc1-c1ccc(CNC(=O)[C@@H]2C[C@@H](O)CN2C(=O)[C@@H](NC(=O)CCCCCc2cccc(OC[C@H](CCC(N)=O)NC(=O)[C@@H]3Cc4cccc5c4N3C(=O)[C@@H](NC(=O)c3cc4cc(C(=O)P(=O)(O)O)ccc4[nH]3)CC5)c2)C(C)(C)C)cc1 [Compound I-164, 2-[[(2S,11S)-2-[[(2S)-4-carbamoyl-1-[3-(5-[[(2S)-1-[(2S,4R)-4-hydroxy-2-([[4-(4-methyl-1,3-thiazol-5-yl)phenyl]methyl]carbamoyl)pyrrolidin-1-yl]-3,3-dimethyl-1-oxobutan-2-yl]carbamoyl]pentyl)phenoxy]butan-2-yl]carbamoyl]-12-oxo-1-azatricyclo[6.4.1.0^[4,13]]trideca-4(13),5,7-trien-11-yl]carbamoyl]-1H-indole-5-carbonylphosphonic acid]	10 to 100
CC(=O)N1CC[C@H]2CC[C@@H](C(=O)N[C@@H](CCC(N)=O)[C@@H](C)OCc3ccc(CCCCC(=O)N[C@H](C(=O)N4C[C@H](O)C[C@H]4C(=O)NCc4ccc(-c5scnc5C)cc4)C(C)(C)C)cc3)N2C(=O)[C@@H](NC(=O)c2cc3cc(C(=O)P(=O)(O)O)ccc3[nH]2)C1 [Compound I-165]	100 to 1000
Cn1c(=O)n(C2CCC(=O)NC2=O)c2ccc(C[C@H]3CC[C@H](CC(=O)N4CC[C@H]5CC[C@@H](C(=O)N[C@@H](CCC(N)=O)C(=O)NC(c6ccccc6)c6ccccc6)N5C(=O)[C@@H](NC(=O)c5cc6cc(C(=O)P(=O)(O)O)ccc6[nH]5)C4)CC3)cc21 (stereo partly drawn) [Compound I-166, 2-[[(5S,8S,10aR)-8-[[(1S)-3-carbamoyl-1-(diphenylmethylcarbamoyl)propyl]carbamoyl]-6-oxo-3-[2-[(1r, 4r)-4-[[1-(2,6-dioxopiperidin-3-yl)-3-methyl-2-oxo-1,3-benzodiazol-5-yl]methyl]cyclohexyl]acetyl]-octahydropyrrolo[1,2-a][1,5]diazocin-5-yl]carbamoyl]-1H-indole-5-carbonylphosphonic acid]	10 to 100
Cn1c(=O)n(C2CCC(=O)NC2=O)c2ccc(C[C@H]3CC[C@H](CCC(=O)N4CC[C@H]5CC[C@@H](C(=O)N[C@@H](CCC(N)=O)C(=O)NC(c6ccccc6)c6ccccc6)N5C(=O)[C@@H](NC(=O)c5cc6cc(C(=O)P(=O)(O)O)ccc6[nH]5)C4)CC3)cc21 (stereo partly drawn) [Compound I-167]	100 to 1000
Cn1c(=O)n(C2CCC(=O)NC2=O)c2ccc(N3CCN(CCCC(=O)N4CC[C@H]5CC[C@@H](C(=O)N[C@@H](CCC(N)=O)C(=O)NC(c6ccccc6)c6ccccc6)N5C(=O)[C@@H](NC(=O)c5cc6cc(C(=O)P(=O)(O)O)ccc6[nH]5)C4)CC3)cc21 (stereo partly drawn) [Compound I-168, 2-[[(5S,8S,10aR)-8-[[(1S)-3-carbamoyl-1-(diphenylmethylcarbamoyl)propyl]carbamoyl]-3-(4-[4-[1-(2,6-dioxopiperidin-3-yl)-3-methyl-2-oxo-1,3-benzodiazol-5-yl]piperazin-1-yl]butanoyl)-6-oxo-octahydropyrrolo[1,2-a][1,5]diazocin-5-yl]carbamoyl]-1H-indole-5-carbonylphosphonic acid]	> 1000
Cn1c(=O)n(C2CCC(=O)NC2=O)c2ccc(C3CCN(CCCC(=O)N4CC[C@H]5CC[C@@H](C(=O)N[C@@H](CCC(N)=O)C(=O)NC(c6ccccc6)c6ccccc6)N5C(=O)[C@@H](NC(=O)c5cc6cc(C(=O)P(=O)(O)O)ccc6[nH]5)C4)CC3)cc21 (stereo partly drawn) [Compound I-169, 2-[[(5S,8S,10aR)-8-[[(1S)-3-carbamoyl-1-(diphenylmethylcarbamoyl)propyl]carbamoyl]-3-(4-[4-[1-(2,6-dioxopiperidin-3-yl)-3-methyl-2-oxo-1,3-benzodiazol-5-yl]piperidin-1-yl]butanoyl)-6-oxo-octahydropyrrolo[1,2-a][1,5]diazocin-5-yl]carbamoyl]-1H-indole-5-carbonylphosphonic acid]	100 to 1000

same assay, conditions: read-out: STAT3 HiBiT A549 degradation 24 h: Average external-Abs DC50; A549, 24 h

SMILES	DC50 [nM]
Cn1c(=O)n(C2CCC(=O)NC2=O)c2ccc(CCc3ccccc3CCC(=O)N3CC[C@H]4CC[C@@H](C(=O)N[C@@H](CCC(N)=O)C(=O)NC(c5ccccc5)c5ccccc5)N4C(=O)[C@@H](NC(=O)c4cc5cc(C(=O)P(=O)(O)O)ccc5[nH]4)C3)cc21 (stereo partly drawn) [Compound I-156, diammonium 2-[[(5S,8S,10aR)-8-[[(1S)-3-carbamoyl-1-(diphenylmethylcarbamoyl)propyl]carbamoyl]-3-[3-(2-[2-[1-(2,6-dioxopiperidin-3-yl)-3-methyl-2-oxo-1,3-benzodiazol-5-yl]ethyl]phenyl)propanoyl]-6-oxo-octahydropyrrolo[1,2-a][1,5]diazocin-5-yl]carbamoyl]-1H-indole-5-carbonylphosphonate]	100 to 1000
